Results published in patent US9937186B2, “Sulfonamides derived from tricyclyl-2-aminocycloalkanols as anticancer agents” (ICAHN SCHOOL OF MEDICINE AT MOUNT SINAI, priority 2014, dated 2018).
pIC50: −log10 of the molar value.

Tests used:
Type in all cases: cell-based
[1] = test system: H1650 lung cancer cells; experiment: Cell viability assay (MTT), H1650 lung cancer cells; settings: for GI50 / pIC50: Homo sapiens, NCI-H1650; for pIC50: H1650 lung cancer cells, 48 h drug treatment, MTT
Experimental: Cell Viability Assays (IC50 Determination)
Cell viability assays were performed according to Denizot, F. and R. Lang, Journal of Immunological Methods, 1986. 89(22): p. 271-277. H1650 lung cancer cells were plated at 150,000 cells per well in a 12 well plate. Twenty-four hours after plating, cells were treated as described with increasing concentrations of drug and control. Forty-eight hours after drug treatment, cells were treated with 100 μL of 3-(4,5-Dimethylthiazol-2-yl)-2,5-diphenyltetrazolium bromide (MTT) and incubated for 2 hours at 37 C. The MTT solution was subsequently replaced with 300 μL of n-propyl alcohol and re-aliquoted to a 96 well plate. Spectrophotometric analysis of each solution was performed using a 96 well plate reader at 600 nm in triplicate.

[2] = test system: A549luc cells; experiment: Colony formation (clonogenic) assay, A549luc cells; settings: Homo sapiens, 168 h; A549 luc, harvested 7 days after initial treatment
Experimental: (§1) Protocol for clonogenic assay follows Sangodkar et al., J Clin Invest 2012; 122:2637-51.
(§2) Cell culture and staining: For both A549luc and H1650 cells, 500 cells are seeded into each well of a 6-well plate and allowed to attach for 24 hours before drug treatment. The following day, cells are treated with either the appropriate dose of drug or an equivalent volume of DMSO (two replicates were treated for each condition). For each condition, depleted media was replaced with fresh media containing the equivalent drug dose four days after initial treatment. Cells are harvested either 7 (A549 luc) or 8 (H1650) days after initial treatment. Briefly, medium is aspirated from each well and the cells are washed twice with ice-cold PBS, then plates are allowed to dry at room temperature for 4 hours. Cells are fixed for one hour in a fixing solution consisting of 10% methanol and 10% glacial acetic acid in distilled water, then stained overnight in 1% (w/v) crystal violet dissolved in methanol. The next day, staining solution is aspirated from the wells and plates are washed gently with distilled water to remove excess stain before colony counting. Colonies are imaged on a ChemiDoc XRS+ (Bio-Rad) and images are exported as 8-bit TIFF files. Colonies are counted using the Colony Counter plugin in ImageJ, with colony size defined as between 4 and 400 square pixels, and minimum circularity set at 0.6. Duplicate wells are averaged to obtain a single value for each condition. Results (number of colonies) for A549 luc cells and results (number of colonies) for H1650 cells may be analyzed separately.

[3] = test system: H1650 cells; experiment: Colony formation (clonogenic) assay, H1650 cells; settings: Homo sapiens, NCI-H1650, 192 h; H1650, harvested 8 days after initial treatment
Experimental: as §1, §2

| SMILES | GI50 ([1]; H1650 cells) [µM] | pIC50 [1] | other results |
| --- | --- | --- | --- |
| CN1C(=O)c2ccccc2N(C2CCC[C@@H](NS(=O)(=O)c3ccc(Cl)cc3)[C@@H]2O)c2ccccc21 (relative stereo) [Example 9, 4-Chloro-N-((1S,2S,3R)-rel-2-hydroxy-3-(10-methyl-11-oxo-10,11-dihydro-5H-dibenzo[b,e][1,4]diazepin-5-yl)cyclohexyl)benzenesulfonamide] | 25 | 4.60 | – |
| O=S(=O)(N[C@H]1CCC[C@@H](N2c3ccccc3Oc3ccccc32)[C@@H]1O)c1ccc(OC(F)(F)F)cc1 (single isomer, unassigned) [Example 1b] | 5 | – | GI50 [2]: 7.5 µM; GI50 [3]: 5 µM |
| O=S(=O)(N[C@@H]1CCCC(N2c3ccccc3Oc3ccccc32)[C@H]1O)c1ccc(C(F)(F)C(F)(F)F)cc1 (mixture of isomers) [Example 19] | 10 | – | – |
| N#Cc1ccc2c(c1)c1cc(C#N)ccc1n2C1CCC[C@@H](NS(=O)(=O)c2ccc(OC(F)(F)F)cc2)[C@@H]1O (mixture of isomers) [Example 26] | – | – | H1650 GI50 ([1]; H1650 cells): Weak |
| O=S(=O)(N[C@@H]1CCCC(N2c3ccccc3Oc3ccccc32)[C@H]1O)c1ccc(OC(F)(F)F)c(Cl)c1 (mixture of isomers) [Example 21] | 15 | – | – |
| O=S(=O)(N[C@@H]1CCCC(N2c3ccccc3Oc3ccccc32)[C@H]1O)c1ccc(CC(F)(F)F)cc1 (mixture of isomers) [Example 18] | 15 | – | – |
| O=S(=O)(N[C@@H]1CCCC(n2c3ccccc3c3ccccc32)[C@H]1O)c1ccc(Cl)cc1 (relative stereo) [Example 4, N-((1S,2S,3R)-rel-3-(9H-carbazol-9-yl)-2-hydroxycyclohexyl)-4-chlorobenzenesulfonamide] | 15 | 4.82 | – |
| COC(=O)c1ccc2c(c1)c1ccccc1n2C1CCC[C@@H](NS(=O)(=O)c2ccc(OC(F)(F)F)cc2)[C@@H]1O (mixture of isomers) [Example 29] | 15 | – | – |
| O=S(=O)(N[C@@H]1CCCC(n2c3ccccc3c3cc(Br)ccc32)[C@H]1O)c1ccc(OC(F)(F)F)cc1 (mixture of isomers) [Example 30] | 5 | – | – |
| O=S(=O)(N[C@H]1CCC[C@@H](n2c3ccccc3c3cc(F)ccc32)[C@@H]1O)c1ccc(OC(F)(F)F)cc1 [Example 31a, N-((1S,2S,3R)-3-(3-fluoro-9H-carbazol-9-yl)-2-hydroxycyclohexyl)-4-(trifluoromethoxy)benzenesulfonamide] | 5 | – | – |
| O=S(=O)(N[C@@H]1CCCC(n2c3ccc(Br)cc3c3cc(Br)ccc32)[C@H]1O)c1ccc(Cl)cc1 (mixture of isomers) [Example 25] | 15 | – | – |
| O=S(=O)(N[C@@H]1CCCC(N2c3ccccc3Oc3ccccc32)[C@H]1O)c1ccc(OC(F)(F)F)cc1Cl (mixture of isomers) [Example 17] | 15 | – | – |
| O=S(=O)(N[C@@H]1CCC[C@H](n2c3ccc(F)cc3c3cc(F)ccc32)[C@H]1O)c1ccc(OC(F)(F)F)cc1 [Example 32b] | 5 | – | – |
| O=S(=O)(N[C@@H]1CCCC(N2c3ccccc3Oc3ccccc32)[C@H]1O)c1ccc(OC(F)F)cc1 (mixture of isomers) [Example 20] | 25 | – | – |
| O=S(=O)(N[C@H]1CCC[C@@H](n2c3ccc(F)cc3c3cc(F)ccc32)[C@@H]1O)c1ccc(OC(F)(F)F)cc1 [Example 32a, N-((1S,2S,3R)-3-(3,6-difluoro-9H-carbazol-9-yl)-2-hydroxycyclohexyl)-4-(trifluoromethoxy)benzenesulfonamide] | 5 | – | – |
| CN1C(=O)c2ccccc2N(C2CCC[C@@H](NS(=O)(=O)c3ccc(OC(F)(F)F)cc3)[C@@H]2O)c2ccccc21 (relative stereo) [Example 8, 4-Trifluoromethoxy-N-((1S,2S,3R)-rel-2-hydroxy-3-(10-methyl-11-oxo-10,11-dihydro-5H-dibenzo[b,e][1,4]diazepin-5-yl)cyclohexyl)benzenesulfonamide] | 15 | 4.82 | – |
| N#Cc1ccc2c(c1)c1cc(Br)ccc1n2C1CCC[C@@H](NS(=O)(=O)c2ccc(OC(F)(F)F)cc2)[C@@H]1O (mixture of isomers) [Example 27] | 5 | – | – |
| N#Cc1ccc(S(=O)(=O)N[C@@H]2CCCC(n3c4ccccc4c4ccccc43)[C@H]2O)cc1 (relative stereo) [Example 5, N-((1S,2S,3R)-rel-3-(9H-carbazol-9-yl)-2-hydroxycyclohexyl)-4-cyanobenzenesulfonamide] | 20 | 4.70 | – |
| O=S(=O)(N[C@@H]1CCCC(N2c3ccccc3Oc3ccccc32)[C@H]1O)c1ccc(OC(F)(F)F)cc1 (mixture of isomers) [Example 1, N-(2-hydroxy-3-(10H-phenoxazin-10-yl)cyclohexyl)-4-(trifluoromethoxy)benzenesulfonamide] | 5 | 5.30 | GI50 [2]: 7.5 µM; GI50 [3]: 5 µM |
| O=S(=O)(N[C@H]1CCC[C@@H](n2c3ccccc3c3ccccc32)[C@@H]1O)c1ccc(OC(F)(F)F)cc1 (single isomer, unassigned) [Example 3b] | 10 | – | GI50 [2]: 10 µM; GI50 [3]: 7.5 µM |
| O=S(=O)(N[C@@H]1CCCC(n2c3ccc(Br)cc3c3cc(Br)ccc32)[C@H]1O)c1ccc(OC(F)(F)F)cc1 (mixture of isomers) [Example 24] | 5 | – | – |
| COc1ccc(S(=O)(=O)N[C@@H]2CCCC(n3c4ccccc4c4ccccc43)[C@H]2O)cc1 (relative stereo) [Example 6, N-((1S,2S,3R)-rel-3-(9H-carbazol-9-yl)-2-hydroxycyclohexyl)-4-methoxybenzenesulfonamide] | 20 | 4.70 | – |
| O=S(=O)(N[C@@H]1CCCC(N2c3ccccc3Oc3ccccc32)[C@H]1O)c1ccc(SC(F)(F)F)cc1 (mixture of isomers) [Example 16] | 10 | – | – |
| O=S(=O)(N[C@@H]1CCCC(n2c3ccccc3c3ccccc32)[C@H]1O)c1ccc(OC(F)(F)F)cc1 (mixture of isomers) [Example 3, (1S,2S,3R)-rel-N-(3-(9H-carbazol-9-yl)-2-hydroxycyclohexyl)-4-(trifluoromethoxy)benzenesulfonamide] | 10 | 5.00 | GI50 [2]: 7.5 µM; GI50 [3]: 5 µM |
| O=S(=O)(N[C@@H]1CCCC(N2c3ccccc3COc3ccccc32)[C@H]1O)c1ccc(OC(F)(F)F)cc1 (mixture of isomers) [Example 2, N-((1R,2R,3S)-rel-3-(dibenzo[b,e][1,4]oxazepin-5(11H)-yl)-2-hydroxycyclohexyl)-4-(trifluoromethoxy)benzenesulfonamide] | 20 | 4.70 | – |
| O=S(=O)(N[C@@H]1CCCC(n2c3ccc(Cl)cc3c3cc(Cl)ccc32)[C@H]1O)c1ccc(OC(F)(F)F)cc1 (mixture of isomers) [Example 22] | 5 | – | – |
| N#Cc1ccc2c(c1)c1ccccc1n2C1CCC[C@@H](NS(=O)(=O)c2ccc(OC(F)(F)F)cc2)[C@@H]1O (mixture of isomers) [Example 28] | 10 | – | – |
| O=S(=O)(N[C@@H]1CCCC(n2c3ccccc3c3ccccc32)[C@H]1O)c1ccccc1 (relative stereo) [Example 7, N-((1S,2S,3R)-rel-3-(9H-carbazol-9-yl)-2-hydroxycyclohexyl) benzenesulfonamide] | 25 | 4.60 | – |
| O=S(=O)(N[C@@H]1CCCC(n2c3ccc(Cl)cc3c3cc(Cl)ccc32)[C@H]1O)c1ccc(Cl)cc1 (mixture of isomers) [Example 23] | 5 | – | – |
| O=S(=O)(N[C@H]1CCC[C@@H](n2c3ccccc3c3cc(F)ccc32)[C@@H]1O)c1ccc(OC(F)(F)F)cc1 (stereo in doubt) [Example 31b, N-((1S,2S,3R)-3-(3-fluoro-9H-carbazol-9-yl)-2-hydroxycyclohexyl)-4-(trifluoromethoxy)benzenesulfonamide] | 5 | – | – |
